Experiment [1] addresses T1, Bovine Trypsin (Bos taurus, UniProt P00760).
T1 construct: purchased Sigma
T1 sequence (P00760 24-246): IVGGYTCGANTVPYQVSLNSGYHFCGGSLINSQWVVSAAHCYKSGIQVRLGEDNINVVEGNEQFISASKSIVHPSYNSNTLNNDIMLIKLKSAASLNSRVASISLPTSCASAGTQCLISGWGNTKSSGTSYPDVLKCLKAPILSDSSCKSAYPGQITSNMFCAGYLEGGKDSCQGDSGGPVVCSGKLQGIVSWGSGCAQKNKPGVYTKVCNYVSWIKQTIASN
As to the kind of experiment: biochemical. Here is the method:
All assays were performed on 96-well microplates and the change in relative fluorescence unit (RFU) was measured by fluorescence spectrometer (BMG FLUOstar OPTIMA). […] Stock solution of Boc-VPR-AMC was prepared by dissolving the solid in dimethyl sulfoxide to 100 mM and 10 mM for MeOSuc-AAPV. For BODIPY_FL casein, it was reconstituted to 1 mg/mL in 1xPBS. […] The % of inhibition was calculated by the following equation: % of Inhibition=(1−(Sample RFU − Min RFU)/(Max RFU − Min RFU)) X100
(§1) Each inhibition curves were done in triplicates with a minimum of five concentration points fitted. Fitting of each curve was done using SigmaPlot with the Four Parameter Logistic Function and the IC50 calculated. […] All tested compounds were reconstituted to stock solution in water.
The diluent for all the tested compounds, protein and substrate (except KLK7, which was done with 10 mM Tris pH 7.8) was 1xPBS pH 8.0–8.9. […] 20μL of the ligand-protein mixture was pipetted to a well of a 96-well microplate in triplicates. The reaction was started by addition of 90–100 μL of the diluted substrate solution (contained 0.05% v/v Brij35) and the plate incubated at 25°C but 37°C for KLK7. RFU reading for each well was taken 6 minutes (trypsin) or 15 minutes (KLK14, KLK5, KLK8, matriptase, human neutrophil elastase, porcine pancreatic elastase 1, plasma kallikrein and plasmin) or 20 hours (KLK7) after substrate addition.

Experiment [2] addresses T2, Human Plasma Plasmin (Homo sapiens, UniProt P00747).
T2 construct: human plasma plasmin (purified from human plasma); purchased BioVision; host or cells: human plasma
As to the kind of experiment: biochemical. The procedure: (§2) All assays were performed on 96-well microplates and the change in relative fluorescence unit (RFU) was measured by fluorescence spectrometer (BMG FLUOstar OPTIMA). The excitation/emission wavelength was 360/460 nm for the substrate Boc-VPR-AMC (Bachem AG, Hauptstrasse, Switzerland) and MeOSuc-AAPV-AMC (Bachem AG, Hauptstrasse, Switzerland) and 485/520 nm for BODIPY_FL casein (Invitrogen, Carlsbad, US). Stock solution of Boc-VPR-AMC was prepared by dissolving the solid in dimethyl sulfoxide to 100 mM and 10 mM for MeOSuc-AAPV. For BODIPY_FL casein, it was reconstituted to 1 mg/mL in 1xPBS. […] The % of inhibition was calculated by the following equation: % of Inhibition=(1−(Sample RFU − Min RFU)/(Max RFU − Min RFU)) X100
as §1
(§3) The diluent for all the tested compounds, protein and substrate (except KLK7, which was done with 10 mM Tris pH 7.8) was 1xPBS pH 8.0–8.9. The serially diluted ligands were mixed with diluted bovine trypsin (Sigma, Dorset, U.K.) or activated KLK14, or KLK5, or activated KLK8 or matriptase (catalytic domain only, >90% purity by SDS-PAGE, endotoxin <0.1 ng/μg, R&D, Minneapolis, U.S.) or activated KLK7 or human neutrophil elastase (purified from human plasma, >95% purity by SDS-PAGE, Abcam, Cambridge, U.K.) or porcine pancreatic elastase 1 (Sigma, Dorset, U.K.) or human plasma kallikrein or human plasma plasmin (purified from human plasma, ≥95% purity by SDS-PAGE, BioVision, Milpitas, U.S.). 20μL of the ligand-protein mixture was pipetted to a well of a 96-well microplate in triplicates. The reaction was started by addition of 90–100 μL of the diluted substrate solution (contained 0.05% v/v Brij35) and the plate incubated at 25°C but 37°C for KLK7. RFU reading for each well was taken 6 minutes (trypsin) or 15 minutes (KLK14, KLK5, KLK8, matriptase, human neutrophil elastase, porcine pancreatic elastase 1, plasma kallikrein and plasmin) or 20 hours (KLK7) after substrate addition.

In experiment [3] the target is T3, Matriptase (catalytic domain only) (Homo sapiens, UniProt Q9Y5Y6).
T3 construct: matriptase (catalytic domain only, >90% purity by SDS-PAGE); purchased R&D
T3 sequence (Q9Y5Y6 615-854 limits assumed): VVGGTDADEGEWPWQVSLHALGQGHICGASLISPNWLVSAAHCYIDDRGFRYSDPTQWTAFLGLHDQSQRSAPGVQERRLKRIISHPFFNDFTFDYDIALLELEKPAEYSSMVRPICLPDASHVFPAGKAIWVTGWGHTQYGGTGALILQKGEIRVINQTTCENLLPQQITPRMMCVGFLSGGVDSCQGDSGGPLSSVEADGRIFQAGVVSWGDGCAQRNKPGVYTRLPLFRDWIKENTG
The experiment in a line: biochemical. The procedure:
as §2, §1, §3

In experiment [4] the target is T4, Human Neutrophil Elastase (Homo sapiens, UniProt P08246).
T4 construct: human neutrophil elastase (purified from human plasma); purchased Abcam; host or cells: human plasma (so in the source)
T4 sequence (P08246 30-247 limits assumed): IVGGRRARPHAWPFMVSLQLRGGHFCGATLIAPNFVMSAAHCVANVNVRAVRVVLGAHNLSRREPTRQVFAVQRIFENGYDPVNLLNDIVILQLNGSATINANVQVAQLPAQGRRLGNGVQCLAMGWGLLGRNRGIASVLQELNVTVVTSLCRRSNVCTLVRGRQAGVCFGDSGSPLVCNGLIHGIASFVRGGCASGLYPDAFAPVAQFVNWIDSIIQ
The experiment in a line: Human neutrophil elastase inhibition, MeOSuc-AAPV-AMC assay. The conditions noted are these: read-out: % inhibition of Human Neutrophil Elastase. It is filed as biochemical. Here is the method:
as §2, §1, §3

Where [5] appears, read: enzyme 24 nM, Boc-VPR-AMC 42 μM, 25°C, 15 minutes.
The mark [6] stands for this setting: at 10 μM, enzyme 10 nM, MeOSuc-AAPV-AMC 41 μM.

What is called IC50 is the midpoint of a concentration-inhibition curve. A lower IC50 goes with higher potency. Broadly, the inhibition is the change of the read-out against control, counted positive when it falls.

The structures appear in SMILES notation. Where two headings read alike, the source gives them in different places. Positions of bridges follow the written chain, without caps; N, C: chain ends. Residues, ends and D or L forms follow the SMILES beside them.

T2 sequence (P00747 581-810 limits assumed): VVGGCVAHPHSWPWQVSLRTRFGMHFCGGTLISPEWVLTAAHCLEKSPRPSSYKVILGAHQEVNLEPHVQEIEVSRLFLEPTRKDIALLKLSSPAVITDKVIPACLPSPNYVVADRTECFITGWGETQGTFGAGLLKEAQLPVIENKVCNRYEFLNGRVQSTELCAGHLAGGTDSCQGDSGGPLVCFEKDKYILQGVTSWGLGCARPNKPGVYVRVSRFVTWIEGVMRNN
T2 sequence (P00747 98-580 partner limits assumed): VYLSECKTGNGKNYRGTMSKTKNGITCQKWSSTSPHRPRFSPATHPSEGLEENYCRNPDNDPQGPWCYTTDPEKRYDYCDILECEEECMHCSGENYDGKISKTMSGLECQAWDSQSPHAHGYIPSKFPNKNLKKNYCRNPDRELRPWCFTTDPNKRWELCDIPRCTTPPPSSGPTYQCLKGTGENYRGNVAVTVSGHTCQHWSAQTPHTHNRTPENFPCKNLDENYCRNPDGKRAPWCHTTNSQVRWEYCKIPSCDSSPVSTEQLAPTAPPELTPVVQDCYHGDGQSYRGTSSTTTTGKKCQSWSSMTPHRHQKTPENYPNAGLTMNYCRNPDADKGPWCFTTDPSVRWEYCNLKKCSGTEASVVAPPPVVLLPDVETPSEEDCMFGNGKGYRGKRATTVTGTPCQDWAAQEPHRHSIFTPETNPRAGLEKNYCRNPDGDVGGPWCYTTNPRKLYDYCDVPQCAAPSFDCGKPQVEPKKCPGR

On to `CC[C@H](C)[C@@H]1NC(=O)[C@H](CO)NC(=O)[C@H](CCCNC(=N)N)NC(=O)[C@H]([C@@H](C)O)NC(=O)[C@@H]2CSSC[C@H](NC(=O)[C@H](Cc3c[nH]cn3)NC(=O)[C@@H]3CCCN3C(=O)[C@@H]3CCCN3C1=O)C(=O)N[C@@H](Cc1c[nH]c3ccccc13)C(=O)N1CCC[C@H]1C(=O)N[C@@H](CC(=O)O)C(=O)NCC(=O)N[C@@H](CCCNC(=N)N)C(=O)N2` [Analogue 6] (cyclo(CTRSIPPHCWPDGR); disulfide 1-9), for which the IC50 in experiment [1] was 23 ± 1 nM; in experiment [2], 407 ± 8 nM; in experiment [3], 381 ± 12 nM. Besides, the inhibition at 10 µM in experiment [4] was 0%.

With `CC[C@H](C)[C@@H]1NC(=O)[C@H](CO)NC(=O)[C@H](CCCCN)NC(=O)[C@H]([C@@H](C)O)NC(=O)[C@@H]2CSSC[C@H](NC(=O)[C@H](Cc3c[nH]cn3)NC(=O)[C@@H]3CCCN3C(=O)[C@@H]3CCCN3C1=O)C(=O)N[C@@H](Cc1c[nH]c3ccccc13)C(=O)N1CCC[C@H]1C(=O)N[C@@H](CC(=O)O)C(=O)NCC(=O)N[C@@H](CCCNC(=N)N)C(=O)N2` [Analogue 2] (cyclo(CTKSIPPHCWPDGR); disulfide 1-9), the IC50 in experiment [1] amounted to 20 ± 0.2 nM; in experiment [2], 25 ± 1 nM; in experiment [3], 206 ± 10 nM. Moreover, the inhibition at 10 µM in experiment [4] is 0%.

`CC[C@H](C)[C@@H]1NC(=O)[C@@H]2CCCN2C(=O)[C@@H]2CCCN2C(=O)[C@H]([C@@H](C)CC)NC(=O)[C@H](CO)NC(=O)[C@H](CCCCN)NC(=O)[C@H]([C@@H](C)O)NC(=O)[C@@H]2CSSC[C@H](NC1=O)C(=O)N[C@@H](Cc1ccccc1)C(=O)N1CCC[C@H]1C(=O)N[C@@H](CC(=O)O)C(=O)NCC(=O)N[C@@H](CCCNC(=N)N)C(=O)N2` [Native SFTI, Sunflower Trypsin Inhibitor 1, reference compound]: the 50% inhibitory concentration (IC50) in experiment [2] (setting [5]) was 24 ± 4 nM; in experiment [3], 1250 ± 57 nM. Also, in experiment [4] (setting [6]), the inhibition at 10 µM came out at 0%.

Consider `CC[C@H](C)[C@@H]1NC(=O)[C@H](CO)NC(=O)[C@H](CCCCN)NC(=O)[C@H]([C@@H](C)O)NC(=O)[C@@H]2CSSC[C@H](NC(=O)[C@H](Cc3c[nH]cn3)NC(=O)[C@@H]3CCCN3C(=O)[C@@H]3CCCN3C1=O)C(=O)N[C@@H](Cc1ccccc1)C(=O)N1CCC[C@H]1C(=O)N[C@@H](CC(=O)O)C(=O)NCC(=O)N[C@@H](CCCNC(=N)N)C(=O)N2` [Analogue I10H] (cyclo(CFPDGRCTKSIPPH); disulfide 1-7), for which the IC50 in experiment [1] (enzyme 10 nM, Boc-VPR-AMC 21 μM, 25°C, 6 minutes) is 46 ± 2 nM; in experiment [2] (setting [5]) it was 161 ± 6 nM; in experiment [3] (enzyme 10 nM, Boc-VPR-AMC 21 μM, 25°C, 15 minutes), 2240 ± 567 nM. Further, the inhibition at 10 µM in experiment [4] (setting [6]) turned out to be 0%.

For the origin of these results see article PMC5100903, “Tissue Kallikrein Inhibitors Based on the Sunflower Trypsin Inhibitor Scaffold – A Potential Therapeutic Intervention for Skin Diseases” (PLoS ONE, 2016).
